From patent US20260008780A1, “SUBSTITUTED 3,4-DIHYDROISOQUINOLIN-1(2H)-ONE DERIVATIVES AND RELATED USES” (NodThera Limited, priority 2022, published 2026)

test system: IL-1β release upon NLRP3 activation in peripheral blood mononuclear cells (PBMC); assay: PBMC IC50 Determination Assay; format: cell-based; settings: Homo sapiens; PBMC from buffy coats, LPS 3 h, compound 30 min, then ATP (5 mM) or nigericin (10 μM) 1 h; IL-1β in media by ELISA (Protocol A) or HTRF (Protocol B)
Protocol: The compounds of the present disclosure were tested for their inhibitory activity against IL-1β release upon NLRP3 activation in peripheral blood mononuclear cells (PBMC).
Protocol A. PBMC were isolated from buffy coats by density gradient centrifugation on Histopaque-1077 (Sigma, cat no. 10771). Isolated cells were seeded into the wells of a 96-well plate and incubated for 3 h with lipopolysaccharide (LPS). Following medium exchange, the compounds of the present disclosure were added (a single compound per well) and the cells were incubated for 30 min. Next, the cells were stimulated either with ATP (5 mM) or nigericin (10 μM) for 1 h and the cell culture media from the wells were collected for further analysis.
The release of IL-1β into the media was determined by a quantitative detection of IL-1β in the media using an IL-1p enzyme-linked immunosorbent assay (ELISA) Ready-SET-Go!, eBioscience cat. No. 88-7261-88. Briefly, in a first step, high affinity binding plates (Corning, Costar 9018 or NUNC Maxisorp Cat No. 44-2404) were coated overnight at 4° C. with specific capture antibody included in the kit (anti-human IL-1β ref 14-7018-68). Subsequently, plates were blocked with blocking buffer for 1 h at room temperature (rt) and after washing with a buffer (PBS with 0.05% Tween-20) incubated with protein standard and culture media. After 2 h of incubation at rt, plates were washed and incubated with biotinylated detection antibody included in the kit (anti-human IL-1β Biotin ref. 33-7110-68) for 1 h at rt. Plates were washed and incubated with HRP-streptavidin for 30 min at rt and washed again. The signal was developed after addition of 3,3′,5,5′-tetramethylbenzidine-peroxidase (TMB) until colour appeared and the reaction was stopped by 2 M H2SO4. A microplate spectrophotometer (BioTek) was used to detect signals with 450 nm. The detection range of IL-1β ELISA was […].
Protocol B. PBMC were isolated from buffy coats by density gradient centrifugation on Histopaque-1077 (Sigma, cat no. 10771). Isolated cells were seeded into the wells (280,000 cells/well) of a 96-well plate and incubated for 3 h with lipopolysaccharide (LPS, 1 μg/mL diluted 1000× from a 1 mg/mL stock solution). The compounds of the present disclosure were added (a single compound per well) and the cells were incubated for 30 min. Next, the cells were stimulated with ATP (5 mM final concentration diluted 20× from a 100 mM stock solution) for 1 h and the cell culture media from the wells were collected for further analysis.
The release of IL-1β into the media was determined by quantitative detection of IL-1β in the media using HTRF®, CisBio cat. No. 62HIL1BPEH. Briefly, cell culture supernatant were dispensed directly into the assay plate containing antibodies labelled with the HTRF® donor and acceptor. A microplate spectrophotometer (BMG) was used to detect signals at 655 nm and 620 nm. The detection range of IL-1β HTRF® was 39-6500 μg/mL.

First: CCc1cc2c(s1)C(=O)N(CC(=O)Nc1ccc3c(c1)[nH]c(=O)n3C)CC21CC1 [Compound 44, 2-(2′-Ethyl-7′-oxo-5′H-spiro[cyclopropane-1,4′-thieno[2,3-c]pyridin]-6′(7′H)-yl)-N-(1-methyl-2-oxo-2,3-dihydro-1H-benzo[d]imidazol-5-yl)acetamide]
Second: CCc1cc2c(s1)C(=O)N(CC(=O)Nc1ncc3[nH]c(=O)n(C)c3n1)CC21CC1 [Compound 68, 2-(2′-Ethyl-7′-oxo-5′H-spiro[cyclopropane-1,4′-thieno[2,3-c]pyridin]-6′(7′H)-yl)-N-(9-methyl-8-oxo-8,9-dihydro-7H-purin-2-yl)acetamide]
The IC50 of the first is lower: 1000 to 3000 nM for the first, 3000 to 10000 nM for the second. The first is the more potent here.

Compared with `CC(C)c1cc2n(n1)[C@H](C)CN(CC(=O)Nc1ncccn1)C2=O` [Compound 22, 2-[(7R)-7-Methyl-4-oxo-2-(propan-2-yl)-4H,5H,6H,7H-pyrazolo[1,5-a]pyrazin-5-yl]-N-(pyrimidin-2-yl)acetamide], `CC(C)c1cc2n(c1)C1(CC1)CN(CC(=O)Nc1ncccn1)C2=O` [Compound 11, 2-(7-Isopropyl-1-oxo-spiro[3H-pyrrolo[1,2-a]pyrazine-4,1′-cyclopropane]-2-yl)-N-pyrimidin-2-yl-acetamide] is lower in IC50: 10000 to 50000 nM for the first, 3000 to 10000 nM for the second. The second is the more potent here.

First: O=C(CN1CC2(CC2)c2cc(CC(F)F)sc2C1=O)Nc1ncccn1 [Compound 75, 2-(2′-(2,2-Difluoroethyl)-7′-oxo-5′H-spiro[cyclopropane-1,4′-thieno[2,3-c]pyridin]-6′(7′H)-yl)-N-(pyrimidin-2-yl)acetamide]
Second: CCc1cc2c(s1)C(=O)N(CC(=O)Nc1ncccn1)CC21CC1 [Compound 14, 2-(2-Ethyl-7-oxo-spiro[5H-thieno[2,3-c]pyridine-4,1′-cyclopropane]-6-yl)-N-pyrimidin-2-yl-acetamide]
The IC50 of the first is higher: 1000 to 3000 nM for the first, 100 to 1000 nM for the second. The second is the more potent here.

`CCc1nc2c(s1)C(=O)N(CC(=O)Nc1ncccn1)CC21CC1` [Compound 13, 2-(2-Ethyl-4-oxo-spiro[6H-thiazolo[5,4-c]pyridine-7,1′-cyclopropane]-5-yl)-N-pyrimidin-2-yl-acetamide] and `CNc1nc2c(s1)C(=O)N(CC(=O)Nc1ncccn1)CC21CC1` [Compound 72, 2-(2′-(Methylamino)-4′-oxo-4′H-spiro[cyclopropane-1,7′-thiazolo[5,4-c]pyridin]-5′(6′H)-yl)-N-(pyrimidin-2-yl)acetamide] fall in the same range of IC50: 3000 to 10000 nM for the first, 3000 to 10000 nM for the second.

`CCc1cc2c(s1)C(=O)N(CC(=O)Nc1ncc(OC)cn1)CC21CC1` [Compound 61, 2-{2′-Ethyl-7′-oxo-6′,7′-dihydro-5′H-spiro[cyclopropane-1,4′-thieno[2,3-c]pyridin]-6′-yl}-N-(5-methoxypyrimidin-2-yl)acetamide] and `CCc1cc2c(s1)C(=O)N(CC(=O)Nc1ncc(C#N)cn1)CC21CC1` [Compound 63, N-(5-Cyanopyrimidin-2-yl)-2-{2′-ethyl-7′-oxo-6′,7′-dihydro-5′H-spiro[cyclopropane-1,4′-thieno[2,3-c]pyridin]-6′-yl}acetamide] fall in the same range of IC50: 100 to 1000 nM for the first, 100 to 1000 nM for the second.

First: CC(C)n1cc2c(n1)C1(CC1)CN(CC(=O)Nc1ncccn1)C2=O [Compound 17, 2-(2-Isopropyl-4-oxo-spiro[6H-pyrazolo[4,3-c]pyridine-7,1′-cyclopropane]-5-yl)-N-pyrimidin-2-yl-acetamide]
Second: CCNc1nc2c(s1)C(=O)N(CC(=O)Nc1ncccn1)CC2C (stereo not shown) [Compound 73, 2-(2-(Ethylamino)-7-methyl-4-oxo-6,7-dihydrothiazolo[5,4-c]pyridin-5(4H)-yl)-N-(pyrimidin-2-yl)acetamide]
The IC50 of the first is lower: 3000 to 10000 nM for the first, 10000 to 50000 nM for the second.

`C[C@@H]1CN(CC(=O)N[C@H]2C[C@@](C)(O)C2)C(=O)c2cc3sc(Cl)cc3n21` [Compound 10, 2-[(12R)-4-Chloro-12-methyl-9-oxo-5-thia-1,10-diazatricyclo[6.4.0.02,6]dodeca-2(6),3,7-trien-10-yl]-N-(3-hydroxy-3-methyl-cyclobutyl)acetamide] was tested, and the IC50 was 3000 to 10000 nM.
